Measurements from PubChem BioAssay (NCI).
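96-well plates; 48 h exposure; 5 concentrations. Endpoints by linear interpolation between flanking doses. Not reached: highest tested concentration assigned. TGI is the concentration that stops growth completely.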

How the values were obtained:
Assay in all cases: NCI tumour cell line growth inhibition, 48 h
[1] = tested on: PC-3 prostate
[2] = tested on: HCT-15 colon
[3] = tested on: SF-295 CNS
[4] = tested on: RXF 393 renal
[5] = tested on: DU-145 prostate
[6] = tested on: SK-OV-3 ovarian
[7] = tested on: SF-539 CNS
[8] = tested on: K-562 leukemia
[9] = tested on: RPMI-8226 leukemia
[10] = tested on: NCI-H522 lung
[11] = tested on: HCT-116 colon
[12] = tested on: SR leukemia
[13] = tested on: NCI-H460 lung
[14] = tested on: SK-MEL-5 melanoma
[15] = tested on: MOLT-4 leukemia
[16] = tested on: SK-MEL-28 melanoma
[17] = tested on: MDA-N
[18] = tested on: OVCAR-3 ovarian
[19] = tested on: U251 CNS
[20] = tested on: 786-0 renal

SMILES | TGI [1] [µM] | TGI [2] [µM] | TGI [3] [µM] | TGI [4] [µM] | TGI [5] [µM] | TGI [6] [µM] | TGI [7] [µM] | TGI [8] [µM] | TGI [9] [µM] | TGI [10] [µM] | TGI [11] [µM] | TGI [12] [µM] | TGI [13] [µM] | TGI [14] [µM] | TGI [15] [µM] | TGI [16] [µM] | TGI [17] [µM] | TGI [18] [µM] | TGI [19] [µM] | TGI [20] [µM]
c1ccc(CN[C@]23C4C5CC6C7C5C2C7[C@@](NCc2ccccc2)(C64)N3Cc2ccccc2)cc1 (some centres undefined) | > 100 | > 100 | > 100 | > 100 | > 100 | > 100 | > 100 | > 100 | > 100 | > 100 | > 100 | > 100 | > 100 | > 100 | > 100 | > 100 | > 100 | > 100 | > 100 | > 100
CC(=O)OCc1cncn1S(=O)(=O)c1ccc(C)cc1 | > 100 | > 100 | > 100 | > 100 | > 100 | > 100 | > 100 | > 100 | > 100 | > 100 | > 100 | > 100 | > 65.5 | > 100 | > 100 | > 100 | 45.6 | > 100 | > 100 | > 100
CC1=NN(C(=O)CC(=O)Nc2ccccc2Cl)C(=O)C1N=Nc1ccc(S(=O)(=O)c2ccc(N=NC3C(=O)N(C(=O)CC(=O)Nc4ccccc4Cl)N=C3C)cc2)cc1 (centres undefined) | > 100 | > 100 | > 100 | > 100 | > 100 | > 100 | > 100 | > 100 | > 100 | > 100 | > 100 | > 100 | > 100 | > 100 | > 100 | > 100 | > 100 | > 100 | > 100 | > 100
CCCCCc1cc2cc3c(c(O)c2c(=O)[nH]1)C1(CCC3)C(O)=c2c(=O)c3c(=O)cc(OC)c(=O)c=3c(=O)c2=C1O (centres undefined) | 3.66 | 2.33 | 11 | 1.82 | 3.34 | 5.38 |  | > 18.7 | > 18.7 | 1.87 | 2.41 | 4.27 | 3.12 | 1.69 | 4.01 | 3.68 | 3.84 | 2.21 | 2.61 | 2.69
O=c1cc(NNc2cccc(F)c2)[nH]c(=O)[nH]1 | > 100 | 30.9 | > 100 | 35.1 | > 100 | > 100 | > 100 | 84.4 | 47.4 | 35.3 | 31 | 61.7 | > 100 | > 100 | 84.3 | > 100 | > 100 | 30.1 | 31 | 30.1
C=CCc1cc(-c2cc(CC=C)c(O)c(CN(CC)CC)c2)cc(CN(CC)CC)c1O | > 100 | 51.7 | > 88 | 52 | > 100 | > 100 | 54.3 | > 100 | > 88.1 | 70.8 | 55.9 | 70.6 | 64.9 | 25.9 | > 100 | 80.6 | > 73.5 | > 100 | > 100 | > 100
COc1ccc(/C=C/C(=O)c2cc(C(C)(C)C)c(O)c(C(C)(C)C)c2)cc1OC | > 46.4 | > 100 | > 71.1 | 7.69 | > 70.3 | > 100 | 52.1 | > 89.6 | 12.8 | 72.1 | 48.6 | 5.83 | 20.2 | 20.7 | > 49.6 | > 100 | > 33.3 | > 100 | 29.8 | 27.4
C(=N\Nc1ccc(-c2nc3ccccc3[nH]2)cc1)/c1c(-c2ccc(Cc3ccccc3)cc2)[nH]c2ccccc12 | 39.2 | > 100 | 27.9 | 14.5 | > 80.8 | > 100 | 44.6 | > 100 | > 32.5 | 31.9 | > 68.4 | > 100 | > 100 | > 52.8 | > 37.3 | > 100 | > 24.5 | > 59.5 | > 51.2 | > 42.6
O=c1c2c3c(sc2nc2n1N=C(c1ccc(Cl)cc1)CS2)CCCC3 | > 100 | > 100 | > 100 | > 100 | > 100 | > 100 | > 100 | > 100 | > 100 | > 100 | > 100 | > 100 | > 100 | > 100 | > 100 | > 100 | > 100 | > 100 | > 100 | > 100
COC(=O)/C=C\C(C#N)(C#N)N=Cc1ccccc1 | 13.1 | 8.79 | 36.1 | 4.28 | 31.4 | 32.4 | 9.71 | 15 | 2.88 | 1.67 | 3.4 | 3.36 | 39.5 | 28 | 3.85 | 14.3 | 15.1 | 4.97 | 35.6 | 3.22
COC(=O)CCc1ccc2c(c1)C(=O)CC2 | > 100 | > 100 | > 100 | > 100 | > 100 | > 100 | > 100 | > 100 | > 100 | > 100 | > 100 | > 100 | > 100 | > 100 | > 100 | > 100 | > 100 | > 100 | > 100 | > 100
